Tested on: subject having an autoimmune disease
Format: in vivo, human
Settings: IV cyclophosphamide regimen of TABLE 1, no fludarabine, before CAR T infusion
Excerpt: T cells are obtained from a subject having an autoimmune disease (for example, an autoimmune disease selected from (SLE), lupus nephritis, SLE with anti-dsDNA antibodies, pemphigus vulgaris (PV), mucosal PV, mucocutaneous PV, myasthenia gravis (MG), MuSK-associated MG, AChR MG, myositis, membranous nephropathy, anti-synthetase syndrome, dermatomyositis, immune mediated necrotizing myopathy, multiple sclerosis, neuromyelitis optica, chronic inflammatory demyelinating polyneuropathy, anti-NMDA Receptor encephalitis, Lambert-Eaton syndrome, pemphigus foliaceus, epidermolysis bullosa acquisita, bullous pemphigoid, Goodpasture's syndrome, rheumatoid arthritis, systemic sclerosis, anti-neutrophil cytoplasmic antibody (ANCA)-associated vasculitis, immune thrombocytopenic purpura, antiphospholipid syndrome, autoimmune hemolytic anemia, type 1 diabetes, Grave's disease, Hashimoto's disease, and Sjogren's syndrome). […]
A dose of CAR T cells (e.g., from 1×10^6 to 1×10^7 cells/kg bodyweight) is intravenously administered to the subject. The subject is monitored post-infusion for B-cell levels, white blood cell count, CAR T cell levels, and for autoimmune disease markers (e.g., autoantibody levels).

## O=P1(N(CCCl)CCCl)NCCCO1 (stereo not shown) [cyclophosphamide]
  effectiveness of the cyclophosphamide preconditioning regimen used prior to CD19-CAR T cell therapy in treating the autoimmune disease: effective in the treatment of the autoimmune disease

From US20260272983A1, “METHODS AND COMPOSITIONS FOR TREATING AUTOIMMUNE DISEASES” (priority 2023, published 2026)
